Columns and labels:
Assay type in all cases: physicochemical
[1] = Chemical compatibility of the compound of formula (I) with polymers: melt extrudates analysed by HPLC for total impurity; details: hot melt extrusion
From the text: Assay, Degradation Products/Impurities by HPLC
Principle: RP HPLC with UV detection
• Acetonitrile (HPLC grade, e.g. Merck) • Water (e.g. from Milli-Q instrument) • Methanol (Analytical grade, e.g. Sigma-Aldrich or equivalent) • Solvent: Water/acetonitrile 40/60 (v/v)
• Apparatus: e.g. HP 1290 (UPLC) • Column: Waters Acquity BEH C18 (Length 100 mm, internal diameter 2.1 mm or equivalent column and particle size 1.7 μm)
• Mobile Phase: • A: Water/Acetonitrile/TFA (95:5:0.05 v/v/v) • B: Water/Acetonitrile/TFA (5:95:0.05 v/v/v)
Column temperature: 30° C. Auto-sampler temperature: Ambient Needle wash: Methanol/water 80/20 (v/v) Injection volume: • 2 μl of the test and reference solutions, equivalent to about • 0.6 μg of drug substance compound of formula (I) in the reference solution Run time: 18 min […]
The compatibility of the compound of formula (I) with various polymers was tested by preparing melt extrudates according to the manufacturing process as described in example 1 and analyzing the resulting melt extrudates by HPLC to determine the amount of degradation or related products (“impurities”) of the compound of formula (I). […] The amount of total impurities was assessed according to the guideline that the sum of specified and unspecified impurities (herein referred to as total impurity) is preferably not more than (NMT) 0.5%. […]

[2] = Physical state of compound of formula (I) in melt extrudates by XRPD
Description: X-Ray Powder Diffraction (XRPD) Analysis
• Principle: X-ray powder diffraction (XRPD) in reflection geometry • Equipment: Powder diffractomer e.g. type Bruker D8 Discover • Procedure: Place the test substance on the specimen holder. Record the X-ray diffraction pattern between 5° and 40° (2-theta) with Cu Kα radiation (1.5406 Å) in reflection geometry using the following conditions • Detector type: Lynx Eye • High voltage: 40 kV • Current: 40 mA • Scan type: continuous • Step time: 0.3 s • Step size: 0.016° • Soller slit: 2.5° • Slits: 0.6 mm • Method: A part of the sample is used without preparation for the measurement. […] Record the X-ray diffraction pattern between 5° and 40° (2Theta) with CuKα radiation. • Evaluation: Observe the recorded diffractogram and report any detectable diffraction peak. […]
(§1) Melt extrudates were prepared according to example 1. The kinetic solubility and the physical state of the compound of formula (I) were determined. […] Kinetic solubility were determined by adding melt extrudates equivalent to 100 mg of the compound of formula (I) in pH 6.8 phosphate buffer using a rotating bottle at 50 rpm and at a temperature of 37° C. The physical state (crystalline or amorphous) was determined by XRPD (discrete peaks indicating some of the material being in a crystalline state, absence of peaks indicating amorphous state).

[3] = Kinetic solubility of melt extrudates (rotating bottle); details: aqueous buffer; melt extrudates equivalent to 100 mg compound of formula (I), pH 6.8 phosphate buffer, rotating bottle 50 rpm, 37° C.
Description: • Principle: Measurement of the amount of drug substance solubilized using rotating bottle apparatus. Determination by HPLC/UV method for sample analysis.
• Speed of rotation: 50 rpm • Test medium: […] • Volume of test medium: 75 mL • Temperature: 37±0.5° C. Sampling Time points 5, 10, 15, 20, 25, 30, 45, 60 minutes
Procedure: The concentration maximum is taken as kinetic solubility value.
as §1

SMILES: C[C@H]1OC(=O)N(c2cc(-c3cnc(N)nc3C(F)(F)F)nc(N3CCOCC3)n2)[C@H]1CO [compound of formula (I), (4S,5R)-3-(2′-Amino-2-morpholin-4-yl-4′-trifluoromethyl-[4,5]bipyrimidinyl-6-yl)-4-hydroxymethyl-5-methyl-oxazolidin-2-one]
- processing temperature leading to degradation of compound of formula (I) [1]: exceeding 205 °C
- Physical state of compound of formula (I) (XRPD) [2]: Crystalline
- solubility kinetic [3]: ~40 µg/mL

From patent US20170209455A1, “Solid Pharmaceutical Composition Comprising PI3K-Inhibitor” (NOVARTIS AG, priority 2014, published 2017)
